This assay relates to Oct-3/4 gene. The assay can be described thus: Oct-3/4 gene expression level by real time PCR (ES cell differentiation inhibition assay 2). The following applies: D3ES cells, 7 days; for expression of Oct-3/4 gene in comparison with ES cells cultured in the medium without the differentiation inhibiting agent: GAPDH internal standard, FIG. 6; for effect of keeping the expression of the Oct-3/4 gene relative to ESGRO: compared with 1,000 units/mL of ESGRO. In kind it is cell-based, mouse. The method, then:
For the D3ES cells prepared by the method described in (3) preparation of a mouse ES cell of Example 1, 8×10^4 cells were seeded in a 10 cm-diameter cell culture dish coated previously with a 0.1% aqueous gelatin solution to make 10 mL of the ES cell assay medium. 1 mL of the differentiation inhibiting agent A to F, which were dissolved in dimethylsulfoxide (DMSO) or culture medium or their mixture to make 40 μg/mL per each dish, or ESGRO, which was adjusted to make 10^4 unit/mL, was added, and culturing was carried out at 37° C. in 5% […] incubator for 7 days. To the culture medium was added DMSO to make the final concentration 0.1% or lower.
A total RNA was extracted from the ES cells cultured by the method described in (1) ES cell differentiation inhibition assay 2 as described above, by using ISOGEN (K.K. Nippon Gene, Japan made) by the attached method. First, the medium was removed from the dish after the culture, the cells were washed twice with 10 mL of PBS, and dissolved in 1 mL of ISOGENE. After leaving stand at room temperature for 5 minutes, the solution was collected in a 1.5 mL Eppendorf tube. 0.2 mL of chloroform (Wako Pure Chemical Industries made) was added, shaken for 15 seconds and, then, left stand at room temperature for 2 or 3 minutes. The solution was centrifuged at 4° C. at 10000 rpm for 10 minutes by using a micro centrifuge (TOMY SEIKO Corp. made). 400 μL of the supernatant was transferred to a fresh 1.5 mL Eppendorf tube, 500 μL of isopropanol (Wako Pure, Chemical Industries made) was added, and left stand at room temperature for 10 minutes, and, then, centrifuged at 4° C. at 10000 rpm for 10 minutes by using the micro centrifuge. After the supernatant was removed, 1 mL of a 70% aqueous ethanol solution was added followed by shaking and, then, centrifugation was carried out at 4° C. at 10000 rpm for about 5 minutes by using, the micro centrifuge. After the supernatant was removed, a precipitation was dried and dissolved in 30 μL of distilled water to obtain the total RNA solution.
2 μg of the thus obtained total RNA was used as a template to synthesize a cDNA according to the attached protocol by using Deoxyribonuclease I (Amplification Grade)(Invitrogen Corp. made), Oligo(dT) 12-18 primer (Invitrogen Corp. made, 18418-012) and Omniscript reverse transcriptase (QIAGEN Corp, made). Thus, a reaction solution was prepared by adding 1 μL of 10× DNaseI Reaction Buffer, 1 μL of 10× DNaseI (all were made by Invitrogen Corp.) and distilled water to 2 μg of total RNA to make 10 μL in total, and the mixture was incubated at room temperature for 10 minutes. 1 μL of 25 mM EDTA solution was added and heated at 65° C. for 10 minutes. The mixture was cooled to room temperature, and then, 2 μL of 10× Buffer RT, 2 μL of 5 mM dNTP Mix, 2 μL of Oligo(dT) 12-18 primer, 0.25 μL of RNaseOUT (Invitrogen Corp. made, 10777-019) and 1 μL of Omniscript Reverse Transcriptase were added, and RNase-free purified water was added to give the total volume of 20 μL, and the mixture was incubated at 37° C. for 60 minutes to obtain cDNA solution. A portion of the synthesized cDNA obtained in such the way was diluted 5 folds with distilled water, and 2 μL of the solution was used as the template to conduct PCR by using Light Cycler-Fast Start DNA Master SYBR Green I Kit (Roche Diagnostics Corp. made) according to the attached protocol. The expression levels of the Oct-3/4 gene and glyceraldehyde-3-phosphate dehydrogenase (GAPDH) gene as the internal standard were measured. For amplifying the Oct-3/4 gene, sense primer OCT3 up (SEQ ID No.: 1) and antisense primer Oct3 down (SEQ ID No.: 2) were used, and for amplifying the GAPDH gene, sense primer GAPDH up (SEQ ID No.: 3) and antisense primer GAPDH down (SEQ ID No.: 4) were used. The composition of the PCR reaction solution and the reaction condition will be each presented below.

Regarding `CC1(C)Cc2ccccc2C(=C(N=Nc2cccc(Cl)c2)C(N)=O)N1` [C, 2-(3-chloro-phenylazo)-2-(3,3-dimethyl-3,4-dihydro-2H-isoquinoline-1-ylidene)-acetamide], the “expression of Oct-3/4 gene in comparison with ES cells cultured in the medium without the differentiation inhibiting agent” value was “maintained the expression of the Oct-3/4 gene”.

For `CC1(C)Cc2ccccc2C(=C(N=Nc2cccc([N+](=O)[O-])c2)C(N)=O)N1` [E, 2-(3,3-dimethyl-3,4-dihydro-2H-isoquinoline-1-ylidene)-2-(3-nitro-phenylazo)-acetamide], the “expression of Oct-3/4 gene in comparison with ES cells cultured in the medium without the differentiation inhibiting agent” value is recorded as “maintained the expression of the Oct-3/4 gene”.

As for `COc1ccc(N=NC(C(N)=O)=C2NC(C)(C)Cc3ccccc32)cc1` [F, 2-(3,3-dimethyl-3,4-dihydro-2H-isoquinoline-1-ylidene)-2-(4-methoxy-phenylazo)-acetamide], the “expression of Oct-3/4 gene in comparison with ES cells cultured in the medium without the differentiation inhibiting agent” value is reported as “significantly promoted” and the “effect of keeping the expression of the Oct-3/4 gene relative to ESGRO” value is listed as “comparable with 1,000 units/mL of ESGRO”.

For `CC(=O)c1ccc(/N=N/C(C(N)=O)=C2/NC(C)(C)Cc3ccccc32)cc1` [compound B, 2-(4-acetyl-phenylazo)-2-(3,3-dimethyl-3,4-dihydro-2H-isoquinoline-1-ylidene)-acetamide], the “expression of Oct-3/4 gene in comparison with ES cells cultured in the medium without the differentiation inhibiting agent” value is given as “significantly promoted” and the “effect of keeping the expression of the Oct-3/4 gene relative to ESGRO” value is “comparable with 1,000 units/mL of ESGRO”.

These data come from patent publication US8883504B2, “Cell differentiation suppressing agent, method of culturing cells using the same, culture solution, and cultured cell line” (Asahi Kasei Kabushiki Kaisha, priority 2003, dated 2014).
